Data on 26 compounds can be found in patent US7598382B2, “Aryl substituted imidazoquinolines” (Coley Pharmaceutical Group, Inc., priority 2002, dated 2009).

Turning to `CCCc1nc2c(N)nc3cc(/C=C/c4ccc5sc(C)nc5c4)ccc3c2n1CC(C)C` [Example 441, (E)-7-[2-(2-Methylbenzothiazol-5-yl)vinyl]-1-(2-methylpropyl)-2-propyl-1H-imidazo[4,5-c]quinolin-4-amine], the melting point lay within 210 to 212 °C.
On to `CCCc1nc2c(N)nc3cc(/C=C/c4ccc(C)s4)ccc3c2n1CC(C)C` [Example 442, (E)-1-(2-Methylpropyl)-7-[2-(5-methylthiophen-2-yl)vinyl]-2-propyl-1H-imidazo[4,5-c]quinolin-4-amine], for which the melting point is 182 to 185 °C.
`CCCc1nc2c(N)nc3cc(/C=C/c4cccc(OC)c4)ccc3c2n1CC(C)C` [Example 443, (E)-7-[2-(3-Methoxyphenyl)vinyl]-1-(2-methylpropyl)-2-propyl-1H-imidazo[4,5-c]quinolin-4-amine] came in with a melting point of 181 to 183 °C.
`CCCc1nc2c(N)nc3cc(/C=C/c4ccc(OC)cc4)ccc3c2n1CC(C)C` [Example 444, (E)-7-[2-(4-Methoxyphenyl)vinyl]-1-(2-methylpropyl)-2-propyl-1H-imidazo[4,5-c]quinolin-4-amine] displayed a melting point of 201 to 202 °C.
Compound `CCCc1nc2c(N)nc3cc(/C=C/c4ccccc4OC)ccc3c2n1CC(C)C` [Example 445, (E)-7-[2-(2-Methoxyphenyl)vinyl]-1-(2-methylpropyl)-2-propyl-1H-imidazo[4,5-c]quinolin-4-amine] displayed a melting point of 214 to 216 °C.
Consider `CCCc1nc2c(N)nc3cc(CCc4cccc(S(N)(=O)=O)c4)ccc3c2n1CC(C)C` [Example 456, 3-{2-[4-Amino-1-(2-methylpropyl)-2-propyl-1H-imidazo[4,5-c]quinolin-7-yl]ethyl}benzenesulfonamide], for which the melting point was in the range of 250 to 251 °C.
Regarding `CCCc1nc2c(N)nc3cc(CCc4cccc(OC)c4)ccc3c2n1CC(C)C` [Example 458, 7-[2-(3-Methoxyphenyl)ethyl]-1-(2-methylpropyl)-2-propyl-1H-imidazo[4,5-c]quinolin-4-amine], the melting point fell in the range of 155 to 157 °C.
With `CCCc1nc2c(N)nc3cc(CCc4ccc(C)s4)ccc3c2n1CC(C)C` [Example 461, 1-(2-Methylpropyl)-7-[2-(5-methylthiophen-2-yl)ethyl]-2-propyl-1H-imidazo[4,5-c]quinolin-4-amine] the figure was 150 to 152 °C; with `CCOCc1nc2c(N)nc3cc(-n4cccn4)ccc3c2n1CCCOC` [Example 472, 2-Ethloxymethyl-1-(3-methoxypropyl)-7-(pyrazol-1-yl)-1H-imidazo[4,5-c]quinolin-4-amine], 159 to 160 °C.
Compound `CCOCc1nc2c(N)nc3cc(-n4ccnc4)ccc3c2n1CCCOC` [Example 473, 2-Ethoxymethyl-7-(imidazol-1-yl)-1-(3-methoxypropyl)-1H-imidazo[4,5-c]quinolin-4-amine] displayed a melting point of 167.5 to 169 °C.
The result for `CCOCc1nc2c(N)nc3cc(-c4ccc(-c5ccc6c(c5)nc(N)c5nc(COCC)n(CC(C)(C)O)c56)cc4)ccc3c2n1CC(C)(C)O` [Example 474, 1-(4-Amino-7-{4-[4-amino-2-ethoxymethyl-1-(2-hydroxy-2-methylpropyl)-1H-imidazo[4,5-c]quinolin-7-yl]phenyl}-2-ethoxymethyl-1H-imidazo[4,5-c]quinolin-1-yl)-2-methylpropan-2-ol] reads 325 to 328 °C; that for `CCCCCCC1(CCCCCC)c2cc(-c3ccc4c(c3)nc(N)c3nc(COCC)n(CC(C)(C)O)c34)ccc2-c2ccc(-c3ccc4c(c3)nc(N)c3nc(COCC)n(CC(C)(C)O)c34)cc21` [Example 475, 1-(4-Amino-7-{7-[4-amino-2-ethoxymethyl-1-(2-hydroxy-2-methylpropyl)-1H-imidazo[4,5-c]quinolin-7-yl]-9,9-dihexyl-9H-fluoren-2-yl}-2-ethoxymethyl-1H-imidazo[4,5-c]quinolin-1-yl)-2-methylpropan-2-ol], 261 to 265 °C; that for `CCCCCCC1(CCCCCC)c2cc(-c3ccc4c(c3)nc(N)c3nc(CCOC)n(CCCN5CCCC5=O)c34)ccc2-c2ccc(-c3ccc4c(c3)nc(N)c3nc(CCOC)n(CCCN5CCCC5=O)c34)cc21` [Example 476, 1-[4-Amino-7-(7-{4-amino-2-(2-methoxyethyl)-1-[3-(pyrrolidin-2-one)propyl]-1H-imidazo[[4,5-c]quinolin-7-yl}-9,9-dihexyl-9H-fluoren-2-yl)-2-(2-methoxyethyl)-1H-imidazo[4,5-c]quinolin-1-yl]propyl}pyrrolidin-2-one], 251 to 254 °C.
On to `CCOCc1nc2c(N)nc3cc(-c4cccc(CS(N)(=O)=O)c4)ccc3c2n1CC1CCOCC1` [Example 480, {3-[4-Amino-2-ethoxymethyl-1-(tetrahydropyran-4-ylmethyl)-1H-imidazo[4,5-c]quinolin-7-yl]phenyl}methanesulfonamide], for which the melting point was in the range of 254 to 255 °C.
Compound `CC(C)Cn1cnc2c(N)nc3cccc(-c4ccccc4)c3c21` [Example 482, 1-(2-Methylpropyl)-9-phenyl-1H-imidazo[4,5-c]quinolin-4-amine] displayed a melting point of 263 to 265 °C.
The compound `CCCOc1ccc(-c2cccc3nc(N)c4ncn(CC(C)C)c4c23)cc1` [Example 483, 1-(2-Methylpropyl)-9-(4-propoxyphenyl)-1H-imidazo[4,5-c]quinolin-4-amine] had a melting point of 181 to 182 °C.
`CCOCc1nc2c(N)nc3c(-c4cccc(CS(N)(=O)=O)c4)cccc3c2n1CC(C)(C)O` [Example 484, {3-[4-Amino-2-ethoxymethyl-1-(2-hydroxy-2-methylpropyl)-1H-imidazo[4,5-c]quinolin-6-yl]phenyl}methanesulfonamide] yielded a melting point of 234 to 235 °C.
Take `CCOCc1nc2c(N)nc3c(-c4cccnc4)cccc3c2n1CC(C)(C)O` [Example 485, 1-[4-Amino-2-ethoxymethyl-6-(pyridin-3-yl)-1H-imidazo[4,5-c]quinolin-1-yl]-2-methylpropan-2-ol]: the melting point lay in the range of 199 to 201 °C.
`CCOCc1nc2c(N)nc3c(-c4cccc(C(=O)N5CCOCC5)c4)cccc3c2n1CC(C)(C)O` [Example 486, {3-[4-Amino-2-ethoxymethyl-1-(2-hydroxy-2-methylpropyl)-1H-imidazo[4,5-c]quinolin-6-yl]phenyl}morpholin-4-ylmethanone] displayed a melting point of 164 to 166 °C.
`CCOCc1nc2c(N)nc3cc(-c4cccnc4)ccc3c2n1C[C@@H]1COC(C)(C)O1` [Example 487, (R)-1-[(2,2-Dimethyl-1,3-dioxolan-4-yl)methyl]-2-ethoxymethyl-7-(pyridin-3-yl)-1H-imidazo[4,5-c]quinolin-4-amine] showed a melting point of 155 to 156 °C.
As for `CCOCc1nc2c(N)nc3cc(-c4cccnc4)ccc3c2n1C[C@@H](O)CO` [Example 488, (R)-3-[4-Amino-2-ethoxymethyl-7-(pyridin-3-yl)-1H-imidazo[4,5-c]quinolin-1-yl]propane-1,2-diol], the melting point was in the range of 202 to 204 °C.
The result for `CCOCc1nc2c(N)nc3cc(-c4cccnc4)ccc3c2n1C[C@H]1COC(C)(C)O1` [Example 489, (S)-1-[(2,2-Dimethyl-1,3-dioxolan-4-yl)methyl]-2-ethoxymethyl-7-(pyridin-3-yl)-1H-imidazo[4,5-c]quinolin-4-amine] reads 157 to 158 °C; that for `CCOCc1nc2c(N)nc3cc(-c4cccnc4)ccc3c2n1C[C@H](O)CO` [Example 490, (S)-3-[4-Amino-2-ethoxymethyl-7-(pyridin-3-yl)-1H-imidazo[4,5-c]quinolin-1-yl]propane-1,2-diol], 203 to 204 °C.
With `CCOCc1nc2c(N)nc3cc(-c4cccnc4)ccc3c2n1CC1CCCCN1S(C)(=O)=O` (centres unmarked) [Example 492, 2-Ethoxymethyl-1-{[1-(methanesulfonyl)piperidin-2-yl]methyl}-7-(pyridin-3-yl)-1H-imidazo[4,5-c]quinolin-4-amine] the figure was 152 to 154 °C.
In turn, `CCOCc1nc2c(N)nc3cc(-c4cccnc4)ccc3c2n1Cc1ccc(CNS(C)(=O)=O)cc1` [Example 493, N-{4-[4-Amino-2-ethoxymethyl-7-(pyridin-3-yl)-1H-imidazo[4,5-c]quinolin-1-ylmethyl]benzyl}methanesulfonamide] came in with a melting point of 228 to 229 °C.
Take `CCOCc1nc2c(N)nc3cc(-c4cccnc4)ccc3c2n1CCCCNC(=O)c1ccc(C(OCCN(C)C)c2ccccc2)cc1` (centres unmarked) [Example 494, N-[4-(4-Amino-2-ethoxymethyl-7-(pyridin-3-yl)imidazo[4,5-c]quinolin-1-yl)butyl]-4-[(2-dimethylaminoethoxy)phenylmethyl]benzamide]: the melting point lay in the range of 157 to 161 °C.
